Measured values: PMC4364341, “NBD delivery improves the disease phenotype of the golden retriever model of Duchenne muscular dystrophy” (Skeletal Muscle, 2014)

Tested on: mdx mice
Experiment: Histopathology of quadriceps muscles of NBD-treated mdx mice
Type: in vivo, mouse
Settings: 4 weeks, Quad muscles
Protocol: Mdx mice (C57BL/10ScSn-DMD^mdx/J) were purchased from The Jackson Laboratory and housed in the animal facility (University Laboratory Animal Resources, ULAR) at The Ohio State University under conventional conditions with constant temperature and humidity, and fed with standard diet. Treatment of mice was performed between 5 and 7 weeks of age as earlier described, and in accordance with the guidelines of the Institutional Animal Care and Use Committee at The Ohio State University. Efficacy of NBD was assessed comparing four groups (n = 5 each) of mdx mice treated either with vehicle or 3, 2, or 1 × per week with NBD by intraperitoneal (IP) delivery. Two separate groups (n = 10) were dosed subcutaneously (SQ) with vehicle or NBD, and finally two groups (n = 5) were treated with vehicle or NBD by intravenous (IV) delivery. Vascular access ports (VAP) were placed subcutaneously over the dorsal torso and a catheter was surgically inserted into the jugular vein. The catheter was kept clear by a pre- and post-wash with heparin.
For mice muscles, histopathological assessment was performed as earlier described. For canine samples, CS, lateral gastrocnemius, vastus lateralis, and diaphragm muscles were assessed at the end of the 4-month treatment period when dogs were necropsied. Muscle samples were snap frozen in isopentane cooled in liquid nitrogen, and stored at -80°C. A total of 16 dogs (3 wild type, 2 wild type + NBD, 5 untreated GRMD, and 6 GRMD + NBD) were assessed. […] For each stain, quantitation was performed on three 10 μm sections of each muscle. To determine the degree of inflammation, cells that stained with a canine specific macrophage PM2K antibody were quantitated. Muscle damage was assessed by scoring for IgG-positive myofibers using immunofluorescence, and necrotic foci by hematoxylin and eosin (H&E) staining. Centrally located nuclei (CLN) were quantified on H&E sections to determine the degree of regeneration. Staining was quantitated on an Olympus BX51 microscope with Microsuite Five software (Olympus Soft Imaging Solutions GmbH, Center Valley, PA, USA). […]

TALDWSWLQTE [NBD, NBD peptide (…) fused to an Antennapedia protein transduction domain]
Histopathologic improvement with reduced treatment frequencies (IP 10 mg/kg, 2x or 1x per week compared to 3x per week, n = 5 per group): less pronounced | Histopathologic improvement after intravenous dosing (IV via VAP, 10 mg/kg 3x weekly, n = 5 per group): significant histopathologic improvement | Reduction of muscle inflammation and necrosis after subcutaneous dosing (SQ 10 mg/kg 3x weekly, n = 10 per group): no such improvements were observed
